According to the OPERA property sets (Mansouri et al. 2018):

Conditions: not given
With `ClCC(Cl)(Cl)Cl` the boiling point was 130 °C, the log10 Henry constant (atm·m³/mol) was -2.6 and the log10 vapour pressure (mmHg) was 1.08. For the same compound, the melting point was -70.2 °C.
`CC(Oc1ccc(Cl)cc1Cl)C(=O)O` (centres undefined) showed a log10 Koc (L/kg) of 2.23, a log10 vapour pressure (mmHg) of -6.73 and a melting point of 122 °C.
`CCCCCCCCCCCCCCCCCC(=O)OCCCC` gave a boiling point of 343 °C and a melting point of 27 °C.
Compound `C[Se]C` has a boiling point of 55 °C, a log10 Henry constant (atm·m³/mol) of -2.76 and a log10 vapour pressure (mmHg) of 2.38.
`CSc1c(N)nc(N)nc1Cl` showed a log10 Koc (L/kg) of 2.08.
For `O=C(O)C(O)C(=O)O`, the melting point was 157 °C.
`C=C(C)c1ccc(C(C)C)cc1` gave a boiling point of 221 °C and a melting point of -30.6 °C.
`N#CC=Cc1ccco1` gave a melting point of 38 °C.
`CCC1(C)CCCC1` showed a boiling point of 122 °C and a melting point of -144 °C.
Compound `CCC(C)OC(=O)CCC(=O)OC(C)CC` (centres undefined) has a boiling point of 256 °C.
For `CCCCCCCCC#CCCCCCCCC(=O)O`, the melting point was 48 °C.
In the case of `CCC(C)(C)O`, the boiling point is reported as 102 °C, the log10 Henry constant (atm·m³/mol) is reported as -4.86 and the log10 vapour pressure (mmHg) is reported as 1.22. For the same compound, the melting point was -9.1 °C and the ready biodegradability was “not readily biodegradable”.
Compound `Clc1ccc(Cl)c(-c2c(Cl)cccc2Cl)c1` has a log10 Koa of 8.45 and a log10 vapour pressure (mmHg) of -4.65.
Work on `C=CCOC(C)=O` yielded a boiling point of 104 °C and a log10 vapour pressure (mmHg) of 1.43.
For `CCNCC(O)c1cccc(O)c1` (centres undefined), the melting point was 148 °C.
`FC(F)(F)C(F)(F)C(F)(F)C(F)(F)I` gave a boiling point of 67 °C and a melting point of -68 °C.
For `Clc1cccc(-c2cc(Cl)ccc2Cl)c1`, the log10 Henry constant (atm·m³/mol) was -3.7.
`Oc1c(Cl)cc(Cl)cc1Br` showed a melting point of 68 °C.
`CCCCc1ccccn1` showed a boiling point of 192 °C and a melting point of 97 °C.
In the case of `CCCC(CC(OCC)OCC)OCC` (centres undefined), the melting point is reported as -100 °C.
For `O=C(O)CCS`, the log10 vapour pressure (mmHg) was -1.3 and the melting point was 18 °C.
With `O=C(OCCOC(=O)c1ccccc1)c1ccccc1` the melting point was 73.5 °C.
Compound `NNc1ccccn1` has a melting point of 46.6 °C.
Work on `CCON=O` yielded a boiling point of 18 °C.
With `O=C(O)C=Cc1ccccc1F` the melting point was 179 °C.
`O=[N+]([O-])c1cccc(I)c1` gave a boiling point of 280 °C and a melting point of 38.5 °C.
Work on `CCCC=CCCCCC` yielded a boiling point of 171 °C.
In the case of `N#CCCN(CCOC(=O)c1ccccc1)c1ccc(N=Nc2ccc([N+](=O)[O-])cc2)cc1`, the ready biodegradability is reported as “not readily biodegradable”.
Compound `c1ccc(-c2cnc(-c3ccccc3)o2)cc1` has a boiling point of 360 °C and a melting point of 74 °C.
Compound `CCOC(=O)c1ccccc1[N+](=O)[O-]` has a boiling point of 275 °C and a melting point of 30 °C.
`CC(=O)Oc1ccc(C2(c3ccc(OC(C)=O)cc3)C(=O)Nc3ccccc32)cc1` gave a melting point of 242 °C.
`CC(C)(N)C(=O)O` showed a melting point of 335 °C.
In the case of `CC(C)(F)F`, the boiling point is reported as -0.4 °C and the melting point is reported as -105 °C.
Work on `Cc1cccc(CCl)c1` yielded a boiling point of 196 °C.
With `CC(=O)c1ccncc1` the boiling point was 212 °C, the log10 Henry constant (atm·m³/mol) was -7.2 and the melting point was 16 °C.
Compound `C[C@]12CC[C@@H](O)C[C@@H]1CC[C@@H]1[C@@H]2[C@H](O)C[C@]2(C)C(=O)CC[C@@H]12` has a melting point of 235 °C.
Compound `CCCCC(C#N)(Cn1cncn1)c1ccc(Cl)cc1` (centres undefined) has a log10 Koc (L/kg) of 2.7.
With `CC1(C)[C@@H]2CC[C@]1(C)[C@H](O)C2` the log10 vapour pressure (mmHg) was -1.3.
Work on `C=C(C)C#N` yielded a boiling point of 90.3 °C, a log10 vapour pressure (mmHg) of 1.85 and a melting point of -35.8 °C. For the same compound, the ready biodegradability was “readily biodegradable”.
For `CC(C)(O)C(Br)(Br)Br`, the melting point was 169 °C.
With `O=[N+]([O-])c1cc(S(=O)(=O)Nc2ccccc2)ccc1Nc1ccccc1` the melting point was 156 °C and the ready biodegradability was “not readily biodegradable”.
In the case of `CCS`, the boiling point is reported as 35.1 °C, the log10 Henry constant (atm·m³/mol) is reported as -2.34 and the log10 vapour pressure (mmHg) is reported as 2.72. It also gave a melting point of -148 °C.
For `Cc1ccc2cc(N(C)C)ccc2n1`, the boiling point was 319 °C and the melting point was 101 °C.
Compound `CC1NC(C)SC(C)S1` (centres undefined) has a melting point of 46 °C.
In the case of `Cc1cc([N+](=O)[O-])ccc1Cl`, the boiling point is reported as 249 °C and the melting point is reported as 42.5 °C.
For `CC(C)(C)c1ccc(CSc2cnn(C(C)(C)C)c(=O)c2Cl)cc1`, the log10 vapour pressure (mmHg) was -5.93 and the melting point was 112 °C.
`CCCCCCCCCCCC(=O)Cl` gave a melting point of -17 °C.
For `CCOC(=O)c1c(C)cc(O)cc1O`, the melting point was 132 °C.
With `CCCOC(=O)C1CCCCC1` the boiling point was 216 °C.
Compound `CC=CCCCCC` has a boiling point of 124 °C, a log10 vapour pressure (mmHg) of 1.21 and a melting point of -80 °C.
Work on `CCOC(=O)CNc1nc(Cl)nc(NC(C)C)n1` yielded a melting point of 110 °C.
Work on `C1=NN(c2ccccc2)CC1` yielded a boiling point of 273 °C and a melting point of 52 °C.
For `O=[N+]([O-])C(F)(F)F`, the log10 vapour pressure (mmHg) was 3.85.
`CCCCCCCSCCCCCCC` showed a boiling point of 298 °C.
`O=NN([O-])c1ccccc1.[NH4+]` showed a melting point of 164 °C.
With `Cc1ccc2ccc(=O)oc2c1` the melting point was 128 °C.

Same assay, conditions: fish
`COc1c(Cl)ccc(Cl)c1Cl` showed a log10 BCF of 2.52.
For `Clc1cc(-c2cc(Cl)c(Cl)c(Cl)c2)cc(Cl)c1Cl`, the log10 BCF was 5.97.
Compound `ClC1=C(Cl)C2(Cl)C3CC(Cl)(Cl)CC3C1(Cl)C2(Cl)Cl` (centres undefined) has a log10 BCF of 4.3 and a log10 biotransformation half-life (days) of 2.23.
In the case of `[Na][O]c1c(Cl)c(Cl)c(Cl)c(Cl)c1Cl`, the log10 BCF is reported as 2.78.
`Clc1cc2c(cc1Cl)Oc1c(cc(Cl)c(Cl)c1Cl)O2` showed a log10 BCF of 4.26 and a log10 biotransformation half-life (days) of 1.56.
With `O=[N+]([O-])c1cc(S(=O)(=O)Nc2ccccc2)ccc1Nc1ccccc1` the log10 BCF was 1.61 and the log10 biotransformation half-life (days) was -0.66.
`Cc1cc(C)c2c(c1)CC(C)(C)CC2` showed a log10 biotransformation half-life (days) of 0.32.
